Entries after “also recorded” stand apart in the source; their conditions may differ.
What was measured:
human cyclophilin B = human cyclophilin B (Homo sapiens, UniProt P23284); experiment: PPlase test (inhibition of peptidyl-prolyl cis/trans-isomerase activity); assay type: biochemical; conditions: Compound [10 μmol], human CypB
Procedure: The compounds of the formula (I) according to the invention are distinguished by binding to immunophilins and inhibit their isomerase activity. This prolyl isomerase activity is assayed by an enzyme test conventionally used throughout the world: G. Fischer, H. Bang, A. Schellenberger, Biochim. Biophys. Acta, 791, 87-97, 1984; D. H. Rich et al., J. Med. Chem. 38, 4164-4170, 1995.
[…] This PPlase activity is assayed by an enzyme test conventionally used throughout the world: G. Fischer, H. Bang, C. Mech, Biomed. Biochim. Acta, 43, 1101-1111; G. Fischer, R. Bang, A. Schellenberger, Biochim. Biophys. Acta, 791, 87-97, 1984; D. H. Rich et al., J. Med. Chem. 38, 4164-4170, 1995.
The compounds of the general formula I according to the invention are preincubated together with 10 nmol of CypB for 15 min at 4° C. The enzyme reaction is started after the addition of chymotrypsin and HEPES buffer with the test peptide Suc-Ala-Ala-Pro-Phe-Nan. The change in extinction at 390 nm is then monitored and evaluated. The change in extinction determined by photometry results from two partial reactions: a) the rapid chymotryptic cleavage of the trans-peptide; and b) the […] cis/trans isomerization catalysed by cyclophilins.

CypB-CsA-calcineurin = experiment: displacement of 3H-CsA from CypB-CsA-calcineurin (gel filtration of T cell homogenate); assay type: binding, human; conditions: Compound [10 μmol]; 3H-CsA (100 nmol)
Procedure: (§1) To study the interaction with this supermolecule from CsA-CypB or CsA-CypB-calcineurin, the compounds of the general formula I according to the invention were incubated with cell homogenate of a human T cell line containing ^3 H-CsA (100 nmol). After gel filtration on Superose 12, the radioactivity of the eluted fractions was measured and compared with the untreated control. The corresponding displacement of ^3 H-CsA from the supermolecules CypB-CsA and CypB-CsA-calcineurin by the compounds of the general formula I according to the invention is shown in Table 2: […]

CypB-CsA = experiment: displacement of 3H-CsA from CypB-CsA (gel filtration of T cell homogenate); assay type: binding, human; conditions: Compound [10 μmol]; 3H-CsA (100 nmol)
Procedure: as §1

[1] = system: T cells stimulated with OKT-3; experiment: IL-2 proliferation test (3H-thymidine incorporation into T cells stimulated with OKT-3); assay type: cell-based; conditions: Homo sapiens, T-cell; Compound [10 μmol]; 45 h incubation, OKT-3 1 μg/ml; read-out: CD3-induced inhibition of proliferation in [%]
Procedure: The IL-2 proliferation test is based on the incorporation of ^3 H-thymidine into T cells stimulated with OKT-3 (human anti-CD3 antibodies) and is performed as follows:
100,000 T cells are inoculated into 150 μl of culture medium per well in microtitre plates, stimulated by the addition of OKT-3 (1 μg/ml) and incubated for 45 h with each of the compounds of the general formula I according to the invention. After this incubation period, 10 μl of the ^3 H-thymidine solution (0.5 μCi) are pipetted into each well. Incubation is then carried out for 6 h at 37° C. in a 5% CO2 atmosphere. After the cells have been harvested, the radioactivity is quantified in a β-counter. The corresponding CD3-induced inhibition of proliferation by the compounds of the general formula I according to the invention is shown in Table 3: […]

FKBP = conditions: cited from earlier work
[2] = system: IL-2 gene transcription in T cells; conditions: cited from earlier work
[3] = system: cytokines, like IL-2, IL-4 and IL-5; conditions: animal experiments; reference substances; cited from earlier work

Chain of human cyclophilin B (P23284 34-216): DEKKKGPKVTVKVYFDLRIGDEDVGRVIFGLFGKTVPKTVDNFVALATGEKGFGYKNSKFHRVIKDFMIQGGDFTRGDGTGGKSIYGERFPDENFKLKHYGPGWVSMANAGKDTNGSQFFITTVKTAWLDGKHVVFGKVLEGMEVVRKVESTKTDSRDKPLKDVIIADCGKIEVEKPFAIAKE

Row | inhibition at 10 µM (human cyclophilin B) [%] | Structure (SMILES) | Displacement from CypB-CsA-CN in [%] (CypB-CsA-calcineurin) | Displacement from CypB-CsA in [%] (CypB-CsA) | inhibition [1] [%] | binding affinity to receptor protein FKBP (FKBP) | inhibition of gene transcription including the IL-2 gene [2] | blocking of cytokines, like IL-2, IL-4 and IL-5 [3]
1 | 0 to 20 | COC(=O)[C@H](CCCCN)NC(=O)C1Cc2ccccc2N1C(=O)C1CCNCC1 (stereo partly drawn) [Example 2, N-[piperidyl-4-carbonyl]indoline-2-(R,S)-carboxylic acid [S-(ε-NH2)lysinemethyl ester]amide] | -53 | 45 | 40 | – | – | –
2 | 0 to 20 | COC(=O)C1Cc2ccccc2N1C(=O)C1CCN(C(=O)Cc2ccc(OC)cc2)CC1 (racemic) [Example 8, N-[N'-(4-methoxyphenylacetyl)piperidyl-4-carbonyl]indoline-2-(R,S)-carboxylic acid methyl ester] | 8 | 0 | – | – | – | –
3 | 0 to 20 | COC(=O)[C@H](CCCCNC(=O)OC(C)(C)C)NC(=O)C1Cc2ccccc2N1C(=O)C1CCN(C(=O)OC(C)(C)C)CC1 (stereo partly drawn) [Example 1, N-[1-Boc-piperidyl-4-carbonyl]indoline-2-(R,S)-carboxylic acid [S-(N-ε-Boc)lysinemethyl ester]amide] | 45 | 10 | 86 | – | – | –
4 | 0 to 20 | COC(=O)[C@H](CCCCN)NC(=O)C1Cc2ccccc2N1C(=O)C1Cc2ccccc2N1 (stereo partly drawn) [Example 4, N-[indoline-2-(R,S)-carbonyl]indoline-2-(R,S)-carboxylic acid [S-(ε-NH2)lysinemethyl ester]amide] | -42 | 33 | 38 | – | – | –
5 | 0 to 20 | CC(C)(C)OC(=O)N1CCC(C(=O)N2c3ccccc3CC2C(=O)N2CCN(CC(=O)N3CCOCC3)CC2)CC1 (racemic) [Example 12, N-[1-Boc-piperidyl-4-carbonyl]indoline-2-(R,S)-carboxylic acid (piperazinoacetic acid morpholide)amide] | -25 | 8 | 5 | – | – | –
6 | – | C=CC[C@@H]1/C=C(\C)C[C@H](C)C[C@H](OC)[C@H]2O[C@@](O)(C(=O)C(=O)N3CCCC[C@H]3C(=O)O[C@H](/C(C)=C/[C@@H]3CC[C@@H](O)[C@H](OC)C3)[C@H](C)[C@@H](O)CC1=O)[C@H](C)C[C@@H]2OC [FK 506] | – | – | – | bind with high affinity | inhibit the transcription of a number of genes, including the IL-2 gene | blocking of various cytokines, like IL-2, IL-4 and IL-5; also recorded: exhibit the blocking of cytokines, like IL-2, IL-4 and IL-5
7 | 0 to 20 | CC(C)(C)OC(=O)N1c2ccccc2CC1C(=O)Nc1ccncc1 (racemic) [Example 10] | 0 | -58 | 6 | – | – | –
8 | 0 to 20 | COC(=O)[C@H](CCCCNC(=O)OCc1ccccc1)NC(=O)C1Cc2ccccc2N1C(=O)C1CCN(C(=O)Cc2ccc(OC)cc2)CC1 (stereo partly drawn) [Example 13, N-[N'-(4-methoxyphenylacetyl)piperidyl-4-carbonyl]indoline-2-(R,S)-carboxylic acid [S-(N-ε-Z)lysinemethyl ester]amide] | -16 | 46 | 66 | – | – | –
9 | 0 to 20 | COC(=O)[C@H](CCCCNC(=O)OCc1ccccc1)NC(=O)C1Cc2ccccc2N1C(=O)C1Cc2ccccc2N1C(=O)OC(C)(C)C (stereo partly drawn) [Example 5, N-[1-Boc-indoline-2-(R,S)-carbonyl]indoline-2-(R,S)-carboxylic acid [S-(N-ε-Z)lysinemethyl ester]amide] | 20 | 16 | 92 | – | – | –
10 | 20 to 40 | COC(=O)[C@H](CCCCNC(=O)OCc1ccccc1)NC(=O)C1Cc2ccccc2N1C(=O)OC(C)(C)C (stereo partly drawn) [Example 6, 1-Boc-indoline-2-(R,S)-carboxylic acid [S-(N-ε-Z)lysinemethyl ester]amide] | 7 | 0 | 84 | – | – | –
11 | – | CO[C@H]1C[C@@H]2CC[C@@H](C)[C@@](O)(O2)C(=O)C(=O)N2CCCC[C@H]2C(=O)O[C@H]([C@H](C)C[C@@H]2CC[C@@H](O)[C@H](OC)C2)CC(=O)[C@H](C)/C=C(\C)[C@@H](O)[C@@H](OC)C(=O)[C@H](C)C[C@H](C)/C=C/C=C/C=C/1C [rapamycin] | – | – | – | – | – | exhibit the blocking of cytokines, like IL-2, IL-4 and IL-5
12 | 0 to 20 | COC(=O)[C@H](CCCCNC(=O)OC(C)(C)C)NC(=O)C1Cc2ccccc2N1C(=O)C1Cc2ccccc2N1C(=O)OC(C)(C)C (stereo partly drawn) [Example 3, N-[1-Boc-indoline-2-(R,S)-carbonyl]indoline-2-(R,S)-carboxylic acid [S-(N-ε-Boc)lysinemethyl ester]amide] | 22 | 14 | 82 | – | – | –
13 | 0 to 20 | CC(C)(C)OC(=O)N1c2ccccc2CC1C(=O)N1CCN(CC(=O)N2CCOCC2)CC1 (racemic) [Example 11, N-Boc-indoline-2-(R,S)-carboxylic acid (piperazinoacetic acid morpholide)amide] | 0 | -28 | 9 | – | – | –
14 | 0 to 20 | COC(=O)C1Cc2ccccc2N1C(=O)Cc1ccc(OC)cc1 (racemic) [Example 9, N-(4-methoxyphenylacetyl)indoline-2-(R,S)-carboxylic acid methyl ester] | 37 | 39 | – | – | – | –
15 | 0 to 20 | COC(=O)[C@H](Cc1ccccc1)NC(=O)C1Cc2ccccc2N1C(=O)OC(C)(C)C (stereo partly drawn) [Example 7, 1-Boc-indoline-2-(R,S)-carboxylic acid (S-phenylalanine methyl ester)amide] | 0 | 38 | 7 | – | – | –
